{"source": "patent US10201523B2", "about": "“Use of wilforlide A for overcoming chemotherapy resistance” (WESTERN UNIVERSITY OF HEALTH SCIENCES, priority 2013, dated 2019)", "system": "SkBr3-TxR", "assay": "SRB cell viability assay, lapatinib with/without wilforlide A pretreatment", "assay_type": "cell-based", "settings": "SkBr3-TxR; for A at 565 nm: background = 0.051", "key": {"[1]": {"settings": "no wilforlide A pre-Tx, lapatinib 0.01 μM 72 h"}, "[2]": {"settings": "no wilforlide A pre-Tx, lapatinib 0.2 μM 72 h"}, "[3]": {"settings": "no wilforlide A pre-Tx, lapatinib 0.67 μM 72 h"}, "[4]": {"settings": "no wilforlide A pre-Tx, lapatinib 2.0 μM 72 h"}, "[5]": {"settings": "no wilforlide A pre-Tx, lapatinib 6.7 μM 72 h"}, "[6]": {"settings": "no wilforlide A pre-Tx, lapatinib 20 μM 72 h"}, "[7]": {"settings": "wilforlide A 2.5 μg/ml pre-Tx, lapatinib 0.01 μM 72 h"}, "[8]": {"settings": "wilforlide A 2.5 μg/ml pre-Tx, lapatinib 0.067 μM 72 h"}, "[9]": {"settings": "wilforlide A 2.5 μg/ml pre-Tx, lapatinib 0.2 μM 72 h"}, "[10]": {"settings": "wilforlide A 2.5 μg/ml pre-Tx, lapatinib 0.67 μM 72 h"}, "[11]": {"settings": "wilforlide A 2.5 μg/ml pre-Tx, lapatinib 2.0 μM 72 h"}, "[12]": {"settings": "wilforlide A 2.5 μg/ml pre-Tx, lapatinib 6.7 μM 72 h"}}, "note": "pIC50: −log10 of the molar value. Where “and” joins values, the source holds several entries; their conditions need not be identical. Equal entries are not always repeated.", "data": [{"smiles": "CS(=O)(=O)CCNCc1ccc(-c2ccc3ncnc(Nc4ccc(OCc5cccc(F)c5)c(Cl)c4)c3c2)o1", "note": "[lapatinib]", "values": [{"measurement": "viability at 0.001 µM", "setting": "72 h, no wilforlide A pre-Tx, lapatinib 0.001 μM 72 h", "result": 100, "unit": "%"}, {"measurement": "viability at 0.01 µM", "setting": "72 h, no wilforlide A pre-Tx, lapatinib 0.01 μM 72 h", "result": 101, "unit": "%"}, {"measurement": "viability at 0.067 µM", "setting": "72 h, no wilforlide A pre-Tx, lapatinib 0.067 μM 72 h", "result": 96.6, "unit": "%"}, {"measurement": "viability at 0.2 µM", "setting": "72 h, no wilforlide A pre-Tx, lapatinib 0.2 μM 72 h", "result": 90, "unit": "%"}, {"measurement": "viability at 0.67 µM", "setting": "72 h, no wilforlide A pre-Tx, lapatinib 0.67 μM 72 h", "result": 85.6, "unit": "%"}, {"measurement": "viability at 2 µM", "setting": "72 h, no wilforlide A pre-Tx, lapatinib 2.0 μM 72 h", "result": 73.5, "unit": "%"}, {"measurement": "viability at 6.7 µM", "setting": "72 h, no wilforlide A pre-Tx, lapatinib 6.7 μM 72 h", "result": 61.6, "unit": "%"}, {"measurement": "viability at 20 µM", "setting": "72 h, no wilforlide A pre-Tx, lapatinib 20 μM 72 h", "result": 42.6, "unit": "%"}, {"measurement": "viability at 0.001 µM", "setting": "72 h, wilforlide A 2.5 μg/ml pre-Tx, lapatinib 0.001 μM 72 h", "result": 100, "unit": "%"}, {"measurement": "viability at 0.01 µM", "setting": "72 h, wilforlide A 2.5 μg/ml pre-Tx, lapatinib 0.01 μM 72 h", "result": 89, "unit": "%"}, {"measurement": "viability at 0.067 µM", "setting": "72 h, wilforlide A 2.5 μg/ml pre-Tx, lapatinib 0.067 μM 72 h", "result": 77.2, "unit": "%"}, {"measurement": "viability at 0.2 µM", "setting": "72 h, wilforlide A 2.5 μg/ml pre-Tx, lapatinib 0.2 μM 72 h", "result": 69.1, "unit": "%"}, {"measurement": "viability at 0.67 µM", "setting": "72 h, wilforlide A 2.5 μg/ml pre-Tx, lapatinib 0.67 μM 72 h", "result": 59.5, "unit": "%"}, {"measurement": "viability at 6.7 µM", "setting": "72 h, wilforlide A 2.5 μg/ml pre-Tx, lapatinib 6.7 μM 72 h", "result": 40.7, "unit": "%"}, {"measurement": "viability at 20 µM", "setting": "72 h, wilforlide A 2.5 μg/ml pre-Tx, lapatinib 20 μM 72 h", "result": 31.1, "unit": "%"}, {"measurement": "mean A", "setting": "no wilforlide A pre-Tx, lapatinib 0.001 μM 72 h", "result": 2.302}, {"measurement": "mean A", "setting": "[1]", "result": 2.322}, {"measurement": "A at 565 nm", "setting": "[1]", "result": 2.458}, {"measurement": "mean A", "setting": "no wilforlide A pre-Tx, lapatinib 0.067 μM 72 h", "result": 2.222}, {"measurement": "mean A", "setting": "[2]", "result": 2.071}, {"measurement": "A at 565 nm", "setting": "[2]", "result": 1.945}, {"measurement": "mean A", "setting": "[3]", "result": 1.970}, {"measurement": "A at 565 nm", "setting": "[3]", "result": "1.871 and 1.990 and 2.048"}, {"measurement": "mean A", "setting": "[4]", "result": 1.692}, {"measurement": "A at 565 nm", "setting": "[4]", "result": "1.609 and 1.759 and 1.708"}, {"measurement": "mean A", "setting": "[5]", "result": 1.418}, {"measurement": "A at 565 nm", "setting": "[5]", "result": "1.426 and 1.445 and 1.384"}, {"measurement": "mean A", "setting": "[6]", "result": 0.980}, {"measurement": "A at 565 nm", "setting": "[6]", "result": "0.958 and 1.024 and 0.957"}, {"measurement": "mean A", "setting": "wilforlide A 2.5 μg/ml pre-Tx, lapatinib 0.001 μM 72 h", "result": 2.265}, {"measurement": "mean A", "setting": "[7]", "result": 2.016}, {"measurement": "A at 565 nm", "setting": "[7]", "result": "1.817 and 1.976"}, {"measurement": "mean A", "setting": "[8]", "result": 1.748}, {"measurement": "A at 565 nm", "setting": "[8]", "result": "1.344 and 1.909 and 1.992"}, {"measurement": "mean A", "setting": "[9]", "result": 1.564}, {"measurement": "A at 565 nm", "setting": "[9]", "result": "1.299 and 1.540 and 1.854"}, {"measurement": "mean A", "setting": "[10]", "result": 1.347}, {"measurement": "A at 565 nm", "setting": "[10]", "result": "1.127 and 1.398 and 1.517"}, {"measurement": "mean A", "setting": "[11]", "result": 1.140}, {"measurement": "A at 565 nm", "setting": "[11]", "result": "0.987 and 1.095 and 1.339"}, {"measurement": "mean A", "setting": "[12]", "result": 0.922}, {"measurement": "A at 565 nm", "setting": "[12]", "result": "0.794 and 0.932 and 1.040"}, {"measurement": "A at 565 nm", "setting": "wilforlide A 2.5 μg/ml pre-Tx, lapatinib 20 μM 72 h", "result": "0.731 and 0.673 and 0.706"}, {"measurement": "pIC50", "setting": "wilforlide A 2.5 μg/ml pre-Tx, read-out: Drug IC50 after wilforlide A pre-Tx", "result": 6.05}, {"measurement": "CE", "setting": "chemosensitization effect, wilforlide A 2.5 μg/ml pre-Tx", "result": 13}]}]}
